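All cell lines were grown in 96-well plates and treated with compound for 48 hours. TGI denotes the concentration required for complete inhibition of growth.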
What was measured:
Assay in all cases: inhibition of tumour cell growth, NCI panel, 48 h
SNB-78 CNS = system: SNB-78 CNS
SW-620 colon = system: SW-620 colon
HOP-18 NSCLC = system: HOP-18 NSCLC
SF-539 CNS = system: SF-539 CNS
IGROV1 ovarian = system: IGROV1 ovarian
HCC-2998 colon = system: HCC-2998 colon
HCT-15 colon = system: HCT-15 colon
SK-OV-3 ovarian = system: SK-OV-3 ovarian
EKVX NSCLC = system: EKVX NSCLC
M19-MEL melanoma = system: M19-MEL melanoma
NCI-H226 lung = system: NCI-H226 lung
SF-268 CNS = system: SF-268 CNS
SN12C renal = system: SN12C renal
DLD-1 colon = system: DLD-1 colon
HOP-62 NSCLC = system: HOP-62 NSCLC
HT29 colon = system: HT29 colon
A498 renal = system: A498 renal
XF 498 CNS = system: XF 498 CNS
LOX IMVI melanoma = system: LOX IMVI melanoma
SF-295 CNS = system: SF-295 CNS
HL-60(TB) leukemia = system: HL-60(TB) leukemia
A549 NSCLC = system: A549 NSCLC
RPMI-8226 leukemia = system: RPMI-8226 leukemia
OVCAR-4 ovarian = system: OVCAR-4 ovarian
MALME-3M melanoma = system: MALME-3M melanoma
HCT-116 colon = system: HCT-116 colon
KM12 colon = system: KM12 colon
CAKI-1 renal = system: CAKI-1 renal
SNB-19 CNS = system: SNB-19 CNS
SNB-75 CNS = system: SNB-75 CNS
OVCAR-5 ovarian = system: OVCAR-5 ovarian
UO-31 renal = system: UO-31 renal
OVCAR-8 ovarian = system: OVCAR-8 ovarian
OVCAR-3 ovarian = system: OVCAR-3 ovarian
TK-10 renal = system: TK-10 renal
NCI-H522 lung = system: NCI-H522 lung
SK-MEL-5 melanoma = system: SK-MEL-5 melanoma
786-0 renal = system: 786-0 renal
K-562 leukemia = system: K-562 leukemia
COLO 205 colon = system: COLO 205 colon
UACC-62 melanoma = system: UACC-62 melanoma
LXFL 529 NSCLC = system: LXFL 529 NSCLC
MOLT-4 leukemia = system: MOLT-4 leukemia
SK-MEL-28 melanoma = system: SK-MEL-28 melanoma
NCI-H460 lung = system: NCI-H460 lung
CCRF-CEM leukemia = system: CCRF-CEM leukemia
NCI-H23 lung = system: NCI-H23 lung
UACC-257 melanoma = system: UACC-257 melanoma
SR leukemia = system: SR leukemia
SK-MEL-2 melanoma = system: SK-MEL-2 melanoma
DMS 273 small cell lung = system: DMS 273 small cell lung
ACHN renal = system: ACHN renal
KM20L2 colon = system: KM20L2 colon
U251 CNS = system: U251 CNS
RXF 393 renal = system: RXF 393 renal
M14 melanoma = system: M14 melanoma
HOP-92 NSCLC = system: HOP-92 NSCLC

Structure (SMILES): CC(=O)N1C/C(=C\c2ccccc2)C(=O)/C(=C/c2ccccc2)C1
- TGI (SNB-78 CNS): 53.4 µM
- TGI (SW-620 colon): 8.37 µM
- TGI (HOP-18 NSCLC): 32.9 µM
- TGI (SF-539 CNS): 34.3 µM
- TGI (IGROV1 ovarian): 37.4 µM
- TGI (HCC-2998 colon): 25 µM
- TGI (HCT-15 colon): 23.7 µM
- TGI (SK-OV-3 ovarian): > 54 µM
- TGI (EKVX NSCLC): 51.3 µM
- TGI (M19-MEL melanoma): 10.7 µM
- TGI (NCI-H226 lung): 35.5 µM
- TGI (SF-268 CNS): 66.1 µM
- TGI (SN12C renal): 28.7 µM
- TGI (DLD-1 colon): 25.8 µM
- TGI (HOP-62 NSCLC): 39 µM
- TGI (HT29 colon): 13.8 µM
- TGI (A498 renal): 31.8 µM
- TGI (XF 498 CNS): 49.3 µM
- TGI (LOX IMVI melanoma): 9.01 µM
- TGI (SF-295 CNS): 26.9 µM
- TGI (HL-60(TB) leukemia): 4.06 µM
- TGI (A549 NSCLC): 55.1 µM
- TGI (RPMI-8226 leukemia): 4.79 µM
- TGI (OVCAR-4 ovarian): 33.2 µM
- TGI (MALME-3M melanoma): 40 µM
- TGI (HCT-116 colon): 5.9 µM
- TGI (KM12 colon): 12.1 µM
- TGI (CAKI-1 renal): 35.5 µM
- TGI (SNB-19 CNS): 31.5 µM
- TGI (SNB-75 CNS): 40.9 µM
- TGI (OVCAR-5 ovarian): 35.7 µM
- TGI (UO-31 renal): 34.4 µM
- TGI (OVCAR-8 ovarian): 24.4 µM
- TGI (OVCAR-3 ovarian): 16.4 µM
- TGI (TK-10 renal): 34.8 µM
- TGI (NCI-H522 lung): 27.9 µM
- TGI (SK-MEL-5 melanoma): 12.9 µM
- TGI (786-0 renal): 30.2 µM
- TGI (K-562 leukemia): 12.8 µM
- TGI (COLO 205 colon): 33.9 µM
- TGI (UACC-62 melanoma): 34.2 µM
- TGI (LXFL 529 NSCLC): 21.6 µM
- TGI (MOLT-4 leukemia): 23 µM
- TGI (SK-MEL-28 melanoma): 27.5 µM
- TGI (NCI-H460 lung): 40.2 µM
- TGI (CCRF-CEM leukemia): 11.3 µM
- TGI (NCI-H23 lung): 41.3 µM
- TGI (UACC-257 melanoma): 18.6 µM
- TGI (SR leukemia): 17.5 µM
- TGI (SK-MEL-2 melanoma): 56.6 µM
- TGI (DMS 273 small cell lung): 12.1 µM
- TGI (ACHN renal): 32.4 µM
- TGI (KM20L2 colon): 39.5 µM
- TGI (U251 CNS): 29.7 µM
- TGI (RXF 393 renal): 30.4 µM
- TGI (M14 melanoma): 17.9 µM

Structure (SMILES): O=C(O)CN1CCSc2ccccc2CN(CC(=O)O)CCSc2ccccc2C1
- TGI (SNB-78 CNS): > 100 µM
- TGI (SW-620 colon): > 100 µM
- TGI (HOP-18 NSCLC): > 100 µM
- TGI (SF-539 CNS): > 100 µM
- TGI (IGROV1 ovarian): > 100 µM
- TGI (HCC-2998 colon): > 100 µM
- TGI (HCT-15 colon): > 100 µM
- TGI (SK-OV-3 ovarian): > 100 µM
- TGI (EKVX NSCLC): > 100 µM
- TGI (M19-MEL melanoma): > 100 µM
- TGI (SF-268 CNS): > 100 µM
- TGI (SN12C renal): > 100 µM
- TGI (DLD-1 colon): > 100 µM
- TGI (HOP-62 NSCLC): > 100 µM
- TGI (HT29 colon): > 100 µM
- TGI (A498 renal): > 100 µM
- TGI (LOX IMVI melanoma): > 100 µM
- TGI (SF-295 CNS): > 100 µM
- TGI (HL-60(TB) leukemia): > 100 µM
- TGI (A549 NSCLC): > 100 µM
- TGI (RPMI-8226 leukemia): > 100 µM
- TGI (MALME-3M melanoma): > 100 µM
- TGI (HCT-116 colon): > 100 µM
- TGI (KM12 colon): > 100 µM
- TGI (CAKI-1 renal): > 100 µM
- TGI (SNB-19 CNS): > 100 µM
- TGI (SNB-75 CNS): > 100 µM
- TGI (OVCAR-5 ovarian): > 100 µM
- TGI (UO-31 renal): > 100 µM
- TGI (OVCAR-8 ovarian): > 100 µM
- TGI (OVCAR-3 ovarian): > 100 µM
- TGI (HOP-92 NSCLC): > 100 µM
- TGI (TK-10 renal): > 100 µM
- TGI (NCI-H522 lung): > 100 µM
- TGI (SK-MEL-5 melanoma): > 100 µM
- TGI (786-0 renal): > 100 µM
- TGI (K-562 leukemia): > 100 µM
- TGI (COLO 205 colon): > 100 µM
- TGI (UACC-62 melanoma): > 100 µM
- TGI (LXFL 529 NSCLC): > 100 µM
- TGI (SK-MEL-28 melanoma): > 100 µM
- TGI (NCI-H460 lung): > 100 µM
- TGI (CCRF-CEM leukemia): > 100 µM
- TGI (NCI-H23 lung): > 100 µM
- TGI (UACC-257 melanoma): > 100 µM
- TGI (SR leukemia): 84.5 µM
- TGI (SK-MEL-2 melanoma): > 100 µM
- TGI (DMS 273 small cell lung): > 100 µM
- TGI (ACHN renal): > 100 µM
- TGI (KM20L2 colon): > 100 µM
- TGI (U251 CNS): > 100 µM
- TGI (M14 melanoma): > 100 µM

Source: PubChem BioAssay (NCI)
